Measured values as given in paper PMC9798004 (Frontiers in Psychiatry, 2022).

Assays:
Format in all cases: cell-based
OXTR = OXTR (Homo sapiens, UniProt P30559); experiment: PathHunter β-arrestin assay; conditions: antagonist mode vs EC80 of control agonist, 10-point curve
MC4R = MC4R (Homo sapiens, UniProt P32245); experiment: PathHunter β-arrestin assay; conditions: antagonist mode vs EC80 of control agonist, 10-point curve
CNR1 (CB1) = biological target: T1, CNR1 (CB1) (Homo sapiens, UniProt P21554); experiment: PathHunter β-arrestin assay; conditions: agonist mode
T1 construct: host or cells: CHO
T1 sequence (P21554 whole entry): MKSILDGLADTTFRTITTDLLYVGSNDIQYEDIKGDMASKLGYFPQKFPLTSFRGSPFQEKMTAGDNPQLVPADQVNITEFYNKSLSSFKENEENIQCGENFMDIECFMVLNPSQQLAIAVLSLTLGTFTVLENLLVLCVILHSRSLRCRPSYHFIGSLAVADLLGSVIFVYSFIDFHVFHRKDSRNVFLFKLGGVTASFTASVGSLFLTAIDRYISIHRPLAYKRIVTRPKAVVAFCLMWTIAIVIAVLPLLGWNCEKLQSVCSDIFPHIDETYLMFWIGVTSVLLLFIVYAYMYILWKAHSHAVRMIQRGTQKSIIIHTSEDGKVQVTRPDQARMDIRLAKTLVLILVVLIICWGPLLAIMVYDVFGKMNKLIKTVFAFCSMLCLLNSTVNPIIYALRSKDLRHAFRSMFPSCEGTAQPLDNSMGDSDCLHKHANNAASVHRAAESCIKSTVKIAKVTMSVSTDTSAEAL

ADRA2A = biological target: T2, ADRA2A (Homo sapiens, UniProt P08913); experiment: PathHunter β-arrestin assay; conditions: antagonist mode vs EC80 of control agonist, 10-point curve
T2 construct: host or cells: CHO
T2 sequence (P08913 whole entry): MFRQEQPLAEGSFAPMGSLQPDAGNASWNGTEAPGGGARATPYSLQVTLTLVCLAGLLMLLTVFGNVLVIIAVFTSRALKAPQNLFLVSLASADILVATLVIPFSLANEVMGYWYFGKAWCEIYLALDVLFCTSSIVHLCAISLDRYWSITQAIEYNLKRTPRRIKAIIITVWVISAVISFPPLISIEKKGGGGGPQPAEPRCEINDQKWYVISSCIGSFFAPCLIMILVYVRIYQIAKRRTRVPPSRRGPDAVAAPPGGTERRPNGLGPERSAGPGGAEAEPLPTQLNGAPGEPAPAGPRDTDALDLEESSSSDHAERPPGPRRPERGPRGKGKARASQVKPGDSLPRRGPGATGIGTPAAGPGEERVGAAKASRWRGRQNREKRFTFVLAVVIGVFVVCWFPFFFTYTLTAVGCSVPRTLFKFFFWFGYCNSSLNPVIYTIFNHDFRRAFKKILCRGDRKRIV

CALCRL-RAMP2 = CALCRL-RAMP2 (Homo sapiens, UniProt O60895+Q16602); experiment: PathHunter β-arrestin assay; conditions: antagonist mode vs EC80 of control agonist, 10-point curve
Sequence of CALCRL-RAMP2 (Q16602 23-461): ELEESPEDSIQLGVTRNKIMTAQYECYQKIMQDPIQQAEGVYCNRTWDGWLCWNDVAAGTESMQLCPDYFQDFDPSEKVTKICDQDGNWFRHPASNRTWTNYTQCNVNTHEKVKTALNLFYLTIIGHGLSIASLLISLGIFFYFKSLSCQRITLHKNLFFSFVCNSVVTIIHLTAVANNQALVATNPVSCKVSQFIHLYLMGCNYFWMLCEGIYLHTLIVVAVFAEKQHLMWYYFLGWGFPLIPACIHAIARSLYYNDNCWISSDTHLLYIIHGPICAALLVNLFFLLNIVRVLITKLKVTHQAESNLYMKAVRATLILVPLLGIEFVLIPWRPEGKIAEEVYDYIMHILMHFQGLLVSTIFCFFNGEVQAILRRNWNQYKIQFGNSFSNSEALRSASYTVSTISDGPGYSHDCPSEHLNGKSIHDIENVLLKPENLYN
Sequence of CALCRL-RAMP2 (O60895 43-175 partner): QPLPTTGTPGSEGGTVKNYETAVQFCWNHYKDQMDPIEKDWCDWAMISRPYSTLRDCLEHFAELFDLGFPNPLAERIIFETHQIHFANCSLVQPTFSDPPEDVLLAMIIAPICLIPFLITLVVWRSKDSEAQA

HRH1 = HRH1 (Homo sapiens, UniProt P35367)
Sequence of HRH1 (P35367 whole entry): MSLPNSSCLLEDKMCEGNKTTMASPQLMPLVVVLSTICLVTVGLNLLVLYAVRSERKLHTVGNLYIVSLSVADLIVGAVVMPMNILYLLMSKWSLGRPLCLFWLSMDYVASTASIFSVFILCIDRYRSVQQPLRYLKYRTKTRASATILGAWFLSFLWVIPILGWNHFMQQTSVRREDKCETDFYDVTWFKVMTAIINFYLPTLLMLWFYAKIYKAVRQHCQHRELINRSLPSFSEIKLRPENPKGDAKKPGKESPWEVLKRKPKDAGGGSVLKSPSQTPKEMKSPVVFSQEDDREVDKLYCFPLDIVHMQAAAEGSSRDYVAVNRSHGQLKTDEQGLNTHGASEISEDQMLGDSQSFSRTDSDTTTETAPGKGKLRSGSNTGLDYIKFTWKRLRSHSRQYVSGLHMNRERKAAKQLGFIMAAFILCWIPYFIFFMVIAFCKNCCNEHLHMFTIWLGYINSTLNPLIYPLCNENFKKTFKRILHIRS

P2RY6 = P2RY6 (Homo sapiens, UniProt Q15077); experiment: PathHunter β-arrestin assay; conditions: antagonist mode, up to 30 μM
Sequence of P2RY6 (Q15077 whole entry): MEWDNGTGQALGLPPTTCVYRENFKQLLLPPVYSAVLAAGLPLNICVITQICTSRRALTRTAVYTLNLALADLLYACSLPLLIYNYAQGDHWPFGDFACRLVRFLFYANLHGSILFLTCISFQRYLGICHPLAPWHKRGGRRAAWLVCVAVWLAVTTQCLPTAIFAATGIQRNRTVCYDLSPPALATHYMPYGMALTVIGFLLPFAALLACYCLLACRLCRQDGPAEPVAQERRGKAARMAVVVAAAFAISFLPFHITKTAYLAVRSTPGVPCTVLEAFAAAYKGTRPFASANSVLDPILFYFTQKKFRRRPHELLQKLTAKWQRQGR

MRGPRX2 = biological target: T3, MRGPRX2 (Homo sapiens, UniProt Q96LB1); experiment: PathHunter β-arrestin assay; conditions: antagonist mode vs EC80 of control agonist, 10-point curve
T3 sequence (Q96LB1 1-330): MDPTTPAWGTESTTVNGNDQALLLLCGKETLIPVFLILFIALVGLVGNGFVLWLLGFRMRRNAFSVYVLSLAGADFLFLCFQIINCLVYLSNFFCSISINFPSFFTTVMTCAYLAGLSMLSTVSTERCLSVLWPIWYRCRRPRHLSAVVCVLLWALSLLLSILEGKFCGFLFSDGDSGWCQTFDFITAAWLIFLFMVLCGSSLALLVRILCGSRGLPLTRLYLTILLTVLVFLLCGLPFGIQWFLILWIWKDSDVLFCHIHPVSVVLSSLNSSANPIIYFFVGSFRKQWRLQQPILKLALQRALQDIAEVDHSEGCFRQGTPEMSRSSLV

PTGER4 = PTGER4 (Homo sapiens, UniProt P35408); experiment: PathHunter β-arrestin assay; conditions: antagonist mode vs EC80 of control agonist, 10-point curve
Sequence of PTGER4 (P35408 whole entry): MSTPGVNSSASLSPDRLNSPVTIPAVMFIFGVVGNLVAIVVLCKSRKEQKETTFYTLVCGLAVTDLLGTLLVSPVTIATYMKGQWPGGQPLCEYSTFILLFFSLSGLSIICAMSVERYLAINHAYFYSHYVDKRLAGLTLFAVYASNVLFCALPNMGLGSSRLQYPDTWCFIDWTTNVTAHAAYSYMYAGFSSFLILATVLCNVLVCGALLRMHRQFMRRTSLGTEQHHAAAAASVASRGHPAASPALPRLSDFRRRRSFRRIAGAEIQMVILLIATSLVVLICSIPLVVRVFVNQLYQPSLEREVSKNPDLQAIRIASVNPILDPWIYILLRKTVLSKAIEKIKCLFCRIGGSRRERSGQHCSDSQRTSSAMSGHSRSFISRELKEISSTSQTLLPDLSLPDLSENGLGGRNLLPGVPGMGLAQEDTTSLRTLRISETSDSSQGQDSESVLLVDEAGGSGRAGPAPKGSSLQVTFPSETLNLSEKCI

CCR10 = biological target: T4, CCR10 (Homo sapiens, UniProt P46092); experiment: PathHunter β-arrestin assay; conditions: antagonist mode vs EC80 of control agonist, 10-point curve
T4 sequence (P46092 1-362): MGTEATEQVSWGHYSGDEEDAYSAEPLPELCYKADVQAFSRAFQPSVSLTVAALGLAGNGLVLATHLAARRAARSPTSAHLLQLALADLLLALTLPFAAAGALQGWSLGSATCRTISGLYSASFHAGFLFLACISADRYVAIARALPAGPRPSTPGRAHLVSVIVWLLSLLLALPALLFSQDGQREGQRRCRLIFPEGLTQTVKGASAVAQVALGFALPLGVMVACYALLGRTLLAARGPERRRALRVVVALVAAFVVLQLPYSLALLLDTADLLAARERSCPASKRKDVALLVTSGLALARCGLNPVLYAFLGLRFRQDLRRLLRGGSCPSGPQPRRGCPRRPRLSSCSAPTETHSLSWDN
Procedure, shortened: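 Normalized data were fitted with four parameters to derive RC50 after 10-point titration, 1.5–30 μM, in technical replicate. Antagonist-mode wells contained the relevant agonist at EC80, and parallel agonist and antagonist curves served as plate controls.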

CHRM2 = biological target: T5, CHRM2 (Homo sapiens, UniProt P08172); experiment: PathHunter β-arrestin assay; conditions: antagonist mode vs EC80 of control agonist, 10-point curve
T5 sequence (P08172 1-466): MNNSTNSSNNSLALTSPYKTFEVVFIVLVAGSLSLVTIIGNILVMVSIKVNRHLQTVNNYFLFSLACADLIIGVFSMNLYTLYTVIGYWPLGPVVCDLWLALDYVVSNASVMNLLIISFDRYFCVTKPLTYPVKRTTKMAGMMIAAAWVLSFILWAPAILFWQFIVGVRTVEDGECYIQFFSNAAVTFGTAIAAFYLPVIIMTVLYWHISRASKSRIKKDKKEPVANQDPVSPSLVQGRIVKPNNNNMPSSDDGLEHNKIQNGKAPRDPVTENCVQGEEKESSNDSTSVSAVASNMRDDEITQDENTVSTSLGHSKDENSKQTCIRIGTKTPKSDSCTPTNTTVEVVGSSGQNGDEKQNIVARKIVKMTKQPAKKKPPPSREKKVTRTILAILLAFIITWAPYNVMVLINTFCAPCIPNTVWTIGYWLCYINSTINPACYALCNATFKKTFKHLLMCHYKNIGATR

ADRA2C = biological target: T6, ADRA2C (Homo sapiens, UniProt P18825); experiment: PathHunter β-arrestin assay
T6 sequence (P18825 1-462): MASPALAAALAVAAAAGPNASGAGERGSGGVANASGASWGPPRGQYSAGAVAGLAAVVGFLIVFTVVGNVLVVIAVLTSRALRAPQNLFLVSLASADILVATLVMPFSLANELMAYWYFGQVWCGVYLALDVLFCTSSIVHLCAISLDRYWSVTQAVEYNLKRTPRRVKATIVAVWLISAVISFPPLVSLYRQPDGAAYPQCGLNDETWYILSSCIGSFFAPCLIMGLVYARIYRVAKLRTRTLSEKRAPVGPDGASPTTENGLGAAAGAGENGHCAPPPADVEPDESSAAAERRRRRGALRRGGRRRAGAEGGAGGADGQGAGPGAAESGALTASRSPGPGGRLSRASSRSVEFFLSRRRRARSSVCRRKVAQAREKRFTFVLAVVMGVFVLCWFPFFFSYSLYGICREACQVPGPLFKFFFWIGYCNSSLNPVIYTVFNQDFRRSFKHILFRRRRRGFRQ

Sequence of MC4R (P32245 whole entry): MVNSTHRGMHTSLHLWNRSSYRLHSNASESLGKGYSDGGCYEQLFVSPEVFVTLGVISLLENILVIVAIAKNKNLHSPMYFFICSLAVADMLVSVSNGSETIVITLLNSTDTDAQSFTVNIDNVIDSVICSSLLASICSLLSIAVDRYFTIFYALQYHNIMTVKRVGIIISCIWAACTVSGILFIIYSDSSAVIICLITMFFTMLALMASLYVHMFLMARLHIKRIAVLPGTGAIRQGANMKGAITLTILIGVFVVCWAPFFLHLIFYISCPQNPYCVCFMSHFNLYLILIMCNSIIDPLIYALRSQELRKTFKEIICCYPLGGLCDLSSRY
Sequence of OXTR (P30559 whole entry): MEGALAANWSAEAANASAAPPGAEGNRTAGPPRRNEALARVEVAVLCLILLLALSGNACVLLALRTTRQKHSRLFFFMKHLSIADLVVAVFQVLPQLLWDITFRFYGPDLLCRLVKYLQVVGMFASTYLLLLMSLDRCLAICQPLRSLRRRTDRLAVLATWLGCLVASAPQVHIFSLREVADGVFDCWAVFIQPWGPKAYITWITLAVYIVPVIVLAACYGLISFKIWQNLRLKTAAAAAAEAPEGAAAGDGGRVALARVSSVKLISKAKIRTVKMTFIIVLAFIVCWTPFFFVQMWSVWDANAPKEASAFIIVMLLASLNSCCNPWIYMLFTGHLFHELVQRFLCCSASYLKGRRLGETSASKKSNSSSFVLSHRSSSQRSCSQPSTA

COC(=O)[C@@H](NC(=O)c1nn(Cc2ccc(F)cc2)c2ccccc12)C(C)C [AMB-FUBINACA]
IC50 (OXTR): 12.8 µM
IC50 (MC4R): 5.85 µM
response of CB1-expressing cells at high concentration (CNR1 (CB1); 30 μM, response decreased above 1 μM): very little activity remaining at 30 μM
EC50 (CNR1 (CB1); data above 1 μM excluded from curve fitting): 0.0426 µM
IC50 (ADRA2A): 12.1 µM
IC50 (CALCRL-RAMP2): 10.1 µM
IC50 (HRH1): 1.42 µM
inhibitory activity at lower concentrations (HRH1; antagonist mode, 1 μM): appreciable inhibitory activity
inhibitory activity in concentration-response (P2RY6): Activity was only observed at the highest concentration (30 μM)
IC50 (MRGPRX2): 11.8 µM
IC50 (PTGER4): 3.13 µM
IC50 (CCR10): 12.3 µM
IC50 (CHRM2): 12.9 µM
IC50 (ADRA2C; antagonist mode vs EC80 of control agonist, 10-point curve): 7.3 µM
inhibitory activity at lower concentrations (ADRA2C; antagonist mode, 1 μM): appreciable inhibitory activity
maximum inhibition (ADRA2C; antagonist mode, concentration-response up to 30 μM): 63.11%
